Values of other authors as cited in patent US20110230564A1, “ANT4 INHIBITOR COMPOUNDS AND METHODS OF USE THEREOF” (priority 2008, published 2011).

System: sperm
Conditions: 50 μM

In the case of `CO[C@H](C/C=C\C=C\CC/C=C/C[C@H](C)/C=C/C(=C\C(=O)O)CC(=O)O)/C(C)=C\C=C(/C)C(=O)O` [Bongkrekic acid], the sperm motility is given as “almost completely immotile”.
